Results from US9745321B2, “Fused pyrimidine compound, intermediate, preparation method therefor, and composition and application thereof” (SHANGHAI YINGLI PHARMACEUTICAL CO., LTD, priority 2013, dated 2017).

Columns and labels:
[1] = biological target: PI3Kα (Homo sapiens (Human), UniProt P42336); assay: PI3Kα enzyme activity inhibition IC50 evaluation assay; type: biochemical; settings: ratio PI3Kα vs PI3Kδ
Experimental: (§1) PI3Kα, PI3Kδ, PI3Kβ and PI3Kγ Enzyme Activity Inhibition IC50 Evaluation Assay
(§2) • 1. Buffer preparation: 50 mM HEPES, pH 7.5, 3 mM MgCl2, 1 mM EGTA, 100 mM NaCl, 0.03% CHAPS. • 2. Compound was formulated in 100% DMSO in a concentration gradient, and added to a 384-well plate to a final DMSO concentration of 1%. • 3. PI3Kα, PI3Kδ, PI3Kβ and PI3Kγ enzymes were diluted to an optimum concentration with the following buffer: 50 mM HEPES, pH 7.5, 3 mM MgCl2, 1 mM EGTA, 100 mM NaCl, 0.03% CHAPS, 2 mM DTT, and transferred to a 384-well plate and incubated with the compound for a certain time. • 4. Substrate was diluted to an optimum concentration with the following buffer: 50 mM HEPES, pH 7.5, 3 mM MgCl2, 1 mM EGTA, 100 mM NaCl, 0.03% CHAPS, 2 mM DTT, 50 μM PIP2, 25 μM ATP; then added to a 384-well plate to initiate the reaction, and for PI3Kα, PI3Kβ and PI3Kγ at room temperature reacted for 1 hr, for PI3Kδ at room temperature reacted for 2 hrs. For PI3Kβ and PI3Kγ, it was still necessary to further add 10 μL ADP-Glo Detection Reagent, and then equilibrated at room temperature for 30 minutes. • 5. Read Luminescense with FlexStation, and calculate the inhibition rate as the average of two tests.

[2] = biological target: PI3Kδ (Homo sapiens (Human), UniProt O00329); assay: PI3Kδ enzyme activity inhibition IC50 evaluation assay; type: biochemical; settings: luminescence, 25 μM ATP, 50 μM PIP2, 2 hrs room temperature
PI3Kδ, sequence (O00329 whole entry): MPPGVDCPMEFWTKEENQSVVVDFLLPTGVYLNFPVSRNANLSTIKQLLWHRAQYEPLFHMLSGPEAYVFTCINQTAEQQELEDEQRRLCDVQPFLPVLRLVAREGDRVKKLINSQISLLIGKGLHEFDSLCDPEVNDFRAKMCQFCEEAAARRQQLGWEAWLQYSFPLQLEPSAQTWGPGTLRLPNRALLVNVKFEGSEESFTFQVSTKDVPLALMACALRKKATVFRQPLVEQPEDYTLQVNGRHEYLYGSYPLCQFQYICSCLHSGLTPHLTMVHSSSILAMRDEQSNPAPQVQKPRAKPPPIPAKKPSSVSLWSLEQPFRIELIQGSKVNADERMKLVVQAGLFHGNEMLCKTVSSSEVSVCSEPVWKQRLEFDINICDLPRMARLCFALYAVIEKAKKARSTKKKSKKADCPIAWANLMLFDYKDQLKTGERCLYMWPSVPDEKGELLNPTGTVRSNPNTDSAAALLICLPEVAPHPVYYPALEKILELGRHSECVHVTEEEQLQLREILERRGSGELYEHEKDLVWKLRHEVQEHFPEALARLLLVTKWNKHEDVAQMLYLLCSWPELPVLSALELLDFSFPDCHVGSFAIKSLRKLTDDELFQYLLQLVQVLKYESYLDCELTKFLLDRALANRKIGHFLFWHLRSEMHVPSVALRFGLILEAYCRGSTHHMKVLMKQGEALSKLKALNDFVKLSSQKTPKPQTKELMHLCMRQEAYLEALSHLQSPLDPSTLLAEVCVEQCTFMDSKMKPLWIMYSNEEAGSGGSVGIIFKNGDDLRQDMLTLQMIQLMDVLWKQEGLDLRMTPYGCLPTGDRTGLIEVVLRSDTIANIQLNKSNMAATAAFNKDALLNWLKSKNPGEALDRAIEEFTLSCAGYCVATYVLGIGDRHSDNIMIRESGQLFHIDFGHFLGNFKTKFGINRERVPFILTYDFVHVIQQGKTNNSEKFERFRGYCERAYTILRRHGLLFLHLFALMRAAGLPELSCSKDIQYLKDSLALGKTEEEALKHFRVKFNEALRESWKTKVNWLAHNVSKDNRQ
PI3Kδ, sequence (P27986 whole entry partner): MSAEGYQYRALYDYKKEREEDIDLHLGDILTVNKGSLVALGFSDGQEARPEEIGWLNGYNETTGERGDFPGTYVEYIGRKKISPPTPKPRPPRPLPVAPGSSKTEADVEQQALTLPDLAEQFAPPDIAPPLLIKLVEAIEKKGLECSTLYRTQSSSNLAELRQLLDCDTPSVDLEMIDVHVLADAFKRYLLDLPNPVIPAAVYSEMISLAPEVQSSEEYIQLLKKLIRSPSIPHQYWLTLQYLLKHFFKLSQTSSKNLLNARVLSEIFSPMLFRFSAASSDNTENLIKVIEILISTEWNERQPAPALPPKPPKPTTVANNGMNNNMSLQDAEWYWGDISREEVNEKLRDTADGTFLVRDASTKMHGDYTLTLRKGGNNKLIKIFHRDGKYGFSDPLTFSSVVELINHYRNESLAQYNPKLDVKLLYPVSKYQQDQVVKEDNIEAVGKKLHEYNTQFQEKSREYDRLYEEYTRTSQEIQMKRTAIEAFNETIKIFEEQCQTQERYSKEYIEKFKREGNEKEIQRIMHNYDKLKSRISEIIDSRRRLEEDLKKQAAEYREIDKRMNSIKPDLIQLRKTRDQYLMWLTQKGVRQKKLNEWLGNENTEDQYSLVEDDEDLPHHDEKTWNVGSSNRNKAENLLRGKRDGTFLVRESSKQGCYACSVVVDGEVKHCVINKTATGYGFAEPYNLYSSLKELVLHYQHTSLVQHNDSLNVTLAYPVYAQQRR
Experimental: as §1
as §2, with “Substrate was diluted to an optimum concentration with the following buffer: 50 mM HEPES, pH 7.5, 3 mM MgCl2, 1 mM EGTA, 100 mM NaCl, 0.03% CHAPS, 2 mM DTT, 50 μM PIP2, 25 μM ATP; then added to a 384-well plate to initiate the reaction, and for PI3Kα, PI3Kβ and PI3Kγ at room temperature reacted for 1 hr, for PI3Kδ at room temperature reacted for 2 hrs.” left out

PI3Kα, sequence (P42336 whole entry): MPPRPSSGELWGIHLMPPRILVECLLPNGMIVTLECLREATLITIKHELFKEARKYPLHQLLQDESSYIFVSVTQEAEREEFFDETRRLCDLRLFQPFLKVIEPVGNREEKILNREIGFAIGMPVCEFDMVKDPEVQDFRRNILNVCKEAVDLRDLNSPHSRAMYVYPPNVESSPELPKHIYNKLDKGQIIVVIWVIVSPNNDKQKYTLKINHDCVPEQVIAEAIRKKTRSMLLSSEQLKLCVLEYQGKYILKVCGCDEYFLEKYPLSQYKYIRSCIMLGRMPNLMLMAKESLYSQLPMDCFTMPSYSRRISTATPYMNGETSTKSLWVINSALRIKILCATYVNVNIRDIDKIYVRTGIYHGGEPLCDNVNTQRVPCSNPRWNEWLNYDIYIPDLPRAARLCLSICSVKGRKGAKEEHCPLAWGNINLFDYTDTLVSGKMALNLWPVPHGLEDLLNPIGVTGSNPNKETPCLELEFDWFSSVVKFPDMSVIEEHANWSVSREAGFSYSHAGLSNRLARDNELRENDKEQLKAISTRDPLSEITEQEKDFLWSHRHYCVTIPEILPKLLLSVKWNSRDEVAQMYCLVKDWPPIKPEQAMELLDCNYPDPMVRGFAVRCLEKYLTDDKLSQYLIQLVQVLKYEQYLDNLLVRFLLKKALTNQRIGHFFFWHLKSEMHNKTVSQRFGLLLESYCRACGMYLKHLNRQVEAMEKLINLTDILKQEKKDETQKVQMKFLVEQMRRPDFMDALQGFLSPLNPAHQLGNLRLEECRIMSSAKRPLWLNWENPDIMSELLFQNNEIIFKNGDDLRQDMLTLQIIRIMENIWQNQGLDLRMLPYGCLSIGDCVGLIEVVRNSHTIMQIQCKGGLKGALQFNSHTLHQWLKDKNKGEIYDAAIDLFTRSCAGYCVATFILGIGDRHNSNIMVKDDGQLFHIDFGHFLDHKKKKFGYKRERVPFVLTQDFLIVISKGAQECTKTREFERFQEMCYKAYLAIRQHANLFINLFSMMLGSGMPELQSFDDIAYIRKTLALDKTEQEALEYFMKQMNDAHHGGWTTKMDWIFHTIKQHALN
PI3Kα, sequence (P27986 whole entry partner): as the sequence (P27986 whole entry partner) above

SMILES	α/δ selectivity [1]	IC50 [2]
c1cc(-c2nc(N3CCOCC3)nc3c(CN4CCC(N5CCOCC5)CC4)csc23)c2cc[nH]c2c1 [Compound 9]	>200	50 nM
COc1ncc(-c2nc(N3CCOCC3)nc3c(CN4C[C@@H](C)O[C@@H](C)C4)csc23)cc1NS(C)(=O)=O [Compound 27]	10	99 nM
CCNC(=O)C1CCN(Cc2csc3c(-c4cnc(OC)c(NS(C)(=O)=O)c4)nc(N4CCOCC4)nc23)CC1 [Compound 76]	60	7.3 nM
Cc1oc2ccccc2c1-c1nc(N2CCOCC2)nc2c(CN3CCN(C(=O)C(C)C)CC3)csc12 [Compound 16]	18	567 nM
COc1ncc(-c2nc(N3CCOCC3)nc3c(CN4CCN(C)C(=O)C4)c(C)sc23)cc1NS(C)(=O)=O [Compound 140]	55	3.2 nM
COc1ncc(-c2nc(N3CCOCC3)nc3c(CN4CCC5(CC4)CC5)c(C)sc23)cc1NS(C)(=O)=O [Compound 137]	309	11 nM
CC(C)(C)N1CCN(Cc2csc3c(-c4cccc5[nH]ccc45)nc(N4CCOCC4)nc23)CC1 [Compound 15]	>294	34 nM
CCS(=O)(=O)Nc1cc(-c2nc(N3CCOCC3)nc3c(CN4CCN(C)CC4)csc23)cnc1OC [Compound 70]	87	23 nM
CCC(=O)N1CCN(Cc2csc3c(-c4cnn(C)c4)nc(N4CCOCC4)nc23)CC1 [Compound 18]	58	86 nM
Cc1nc(Cl)cn1-c1nc(N2CCOCC2)nc2c(CN3CCN(C(=O)C(C)C)CC3)csc12 [Compound 23]	40	27 nM
Cc1cc2c(-c3nc(N4CCOCC4)nc4c(CN5CCC(C(C)(C)O)CC5)csc34)cccc2[nH]1 [Compound 6]	>69	145 nM
COc1ncc(-c2nc(N3CCOCC3)nc3c(CN4CCN(C5CCOCC5)CC4)csc23)cc1NS(C)(=O)=O [Compound 33]	51	4.2 nM
COc1ncc(-c2nc(N3CCOCC3)nc3c(CN4CCn5cnnc5C4)c(C)sc23)cc1NS(C)(=O)=O [Compound 116]	57	4.3 nM
COc1ncc(-c2nc(N3CCOCC3)nc3c(CN4CCN(CC(F)(F)F)CC4)csc23)cc1NS(C)(=O)=O [Compound 64]	110	9.1 nM
COc1ncc(-c2nc(N3CCOCC3)nc3c(CN4CCN(CC(C)(C)O)CC4)c(C)sc23)cc1NS(C)(=O)=O [Compound 142]	60	3.7 nM
Cc1cn(-c2nc(N3CCOCC3)nc3c(CN4CCN(C(=O)C(C)C)CC4)csc23)c(C)n1 [Compound 20]	54	66 nM
COc1ncc(-c2nc(N3CCOCC3)nc3c(CN4CCN(C(=O)C(C)C)CC4)csc23)cc1NS(C)(=O)=O [Compound 47]	9	3.5 nM
COc1ncc(-c2nc(N3CCOCC3)nc3c(CN4CC(C(C)(C)O)C4)csc23)cc1NS(C)(=O)=O [Compound 53]	110	19 nM
COc1ncc(-c2nc(N3CCOCC3)nc3c(CN4CCC(N(C)C)CC4)csc23)cc1NS(C)(=O)=O [Compound 43]	105	4 nM
COc1ncc(-c2nc(N3CCOCC3)nc3c(CN4CCN(C(=O)OC(C)(C)C)CC4)csc23)cc1NS(C)(=O)=O [Compound 28]	56	35 nM
COc1ncc(-c2nc(N3CCOCC3)nc3c(CN4CC[C@@H](N5CCC[C@@H]5C)C4)c(C)sc23)cc1NS(C)(=O)=O [Compound 134]	188	4 nM
COc1ncc(-c2nc(N3CCOCC3)nc3c(CN4CCC(C(C)(C)OC)CC4)csc23)cc1NS(C)(=O)=O [Compound 54]	108	2.7 nM
COc1ncc(-c2nc(N3CCOCC3)nc3c(CN4CCC5(CC4)COC5)c(C)sc23)cc1NS(C)(=O)=O [Compound 115]	67	13 nM

SMILES	α/δ selectivity [1]	IC50 [2]
COc1ncc(-c2nc(N3CCOCC3)nc3c(CN4CCC(F)CC4)c(C)sc23)cc1NS(C)(=O)=O [Compound 105]	77	31 nM
COc1ncc(-c2nc(N3CCOCC3)nc3c(CN4CCS(=O)(=O)CC4)c(C)sc23)cc1NS(C)(=O)=O [Compound 113]	27	6.6 nM
COc1ncc(-c2nc(N3CCOCC3)nc3c(CN4CCN(C(=O)N5CCCC5)CC4)csc23)cc1NS(C)(=O)=O [Compound 49]	15	5.7 nM
COc1ncc(-c2nc(N3CCOCC3)nc3c(CN4CCC(N5C[C@@H](C)O[C@@H](C)C5)CC4)csc23)cc1NS(C)(=O)=O [Compound 55]	224	5.6 nM
COc1ncc(-c2nc(N3CCOCC3)nc3c(CN4CCN(C(=O)C5CCCCC5)CC4)csc23)cc1NS(C)(=O)=O [Compound 40]	41	17 nM
COc1ncc(-c2nc(N3CCOCC3)nc3c(CN4CCN(C(C)(C)C(N)=O)CC4)csc23)cc1NS(C)(=O)=O [Compound 57]	103	2.8 nM
COc1ncc(-c2nc(N3CCOCC3)nc3c(CN4CCN(C(C)=O)CC4)csc23)cc1NS(C)(=O)=O [Compound 32]	15	4.3 nM
COc1ncc(-c2nc(N3CCOCC3)nc3c(CN4CCC(N(C)C(C)C)CC4)csc23)cc1NS(C)(=O)=O [Compound 58]	150	5.4 nM
Cc1cn(-c2nc(N3CCOCC3)nc3c(CN4CCN(C(=O)C5CC5)CC4)csc23)c(C)n1 [Compound 37]	38	28.9 nM
COc1ncc(-c2nc(N3CCOCC3)nc3c(CN4CCC(C(C)(C)O)CC4)c(C)sc23)cc1NS(=O)(=O)C(F)(F)F [Compound 118]	92	2.6 nM
COc1ncc(-c2nc(N3CCOCC3)nc3c(CN4CCC(=O)CC4)c(C)sc23)cc1NS(C)(=O)=O [Compound 107]	45	11 nM
COc1ncc(-c2nc(N3CCOCC3)nc3c(CN4CCN(C)CC4)csc23)cc1NS(C)(=O)=O [Compound 51]	103	11 nM
COc1ncc(-c2nc(N3CCOCC3)nc3c(CN4CC[C@@H](N5CCC[C@H]5C)C4)c(C)sc23)cc1NS(C)(=O)=O [Compound 133]	185	7.7 nM
COc1ncc(-c2nc(N3CCOCC3)nc3c(CN4CCC(S(C)(=O)=O)CC4)c(C)sc23)cc1NS(C)(=O)=O [Compound 139]	69	3.2 nM
COc1ncc(-c2nc(N3CCOCC3)nc3c(CN4CCC(C(=O)NCC(F)(F)F)CC4)csc23)cc1NS(C)(=O)=O [Compound 42]	152	13 nM
COc1ncc(-c2nc(N3CCOCC3)nc3c(CN4CCN(C(=O)NCC(F)(F)F)CC4)csc23)cc1NS(C)(=O)=O [Compound 63]	27	12 nM
Cc1nn(C)c(C)c1-c1nc(N2CCOCC2)nc2c(CN3CCN(C(=O)C(C)C)CC3)csc12 [Compound 21]	19	150 nM
COc1ncc(-c2nc(N3CCOCC3)nc3c(CCN4CCCCC4)c(C)sc23)cc1NS(C)(=O)=O [Compound 135]	226	6.3 nM
COc1ncc(-c2nc(N3CCOCC3)nc3c(CN4CCNCC4)c(C)sc23)cc1NS(C)(=O)=O [Compound 96]	64	31 nM
COc1ncc(-c2nc(N3CCOCC3)nc3c(CN4CC[C@H](N5CCCC5)C4)c(C)sc23)cc1NS(C)(=O)=O [Compound 129]	100	19 nM
COc1ncc(-c2nc(N3CCOCC3)nc3c(CN4CCC(N(C)C)CC4)c(C)sc23)cc1NS(C)(=O)=O [Compound 93]	82	10 nM
COc1ncc(-c2nc(N3CCOCC3)nc3c(CN4CCN(C5CCN(C)CC5)CC4)csc23)cc1NS(C)(=O)=O [Compound 39]	159	9.2 nM
COc1ncc(-c2nc(N3CCOCC3)nc3c(CN4CCC(C(C)(C)F)CC4)c(C)sc23)cc1NS(=O)(=O)C1CC1 [Compound 80]	>256	39 nM
